For test [1], the target named is B-Raf kinase (SEQ. ID NO: 2) (Homo sapiens (Human), UniProt P15056). Description: Biochemical Assay for B-Raf (1). As to conditions: Table J, assay version (1); read-out: BRAF (1) IC50. The method in brief:
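Continuous PK/LDH-coupled NADH oxidation assay, A340 read for 6 h at 30° C., with 0.13 nM B-Raf, 30.1 nM MEK substrate and 1 mM ATP in Tris pH 7.5, MgCl2, DTT, detergents, 1% DMSO. Rate taken from 4–5 h window; percent inhibition vs no-compound and known-inhibitor controls; four-parameter fit gives IC50.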

Test [2] addresses A-Raf kinase (SEQ. ID No: 1) (Homo sapiens (Human), UniProt P10398, Y301D/Y302D). Briefly: Biochemical Assay for A-Raf (1). As to conditions: Table J, assay version (1); read-out: ARAF (1) IC50. The method in brief:
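A-Raf Y301D/Y302D at 5.55 nM phosphorylates 30.1 nM MEK with 1 mM ATP in pH 7.5 Tris buffer, 1% DMSO. Activity was read continuously as NADH oxidation at 340 nm in a pyruvate kinase/lactate dehydrogenase coupled system for 6 h at 30 °C. Rates from 4–5 h were converted to percent inhibition, and IC50 came from a four-parameter fit.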

In test [3] the test system is A375 cells. Briefly: A375 Cell Proliferation Assay (1). The format is cell-based. The following applies: Homo sapiens, A-375. The method in brief:
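Resazurin fluorescence (excitation 540 nm, emission 600 nm, after a further 5-6 h) gave IC50s from triplicate compound dilution series.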

In test [4] the test system is WM3928 cells. Briefly: WM3928 Cell Proliferation Assay (1). The format is cell-based. The procedure: WM3928 Cell Proliferation Assay (1)
WM3928 cells (#WM3928-01-0001) are obtained from Rockland Immunochemicals Inc (Gilbertsville, PA). Briefly, cells were grown in MCDB 153 medium (Sigma, #M7403, St. Louis, MO) supplemented with 20% Leibovitz's L-15 (ThermoFisher #11415-064, Waltham, MA), 2% heat inactivated fetal bovine serum (ThermoFisher, #A3840001, Waltham, MA), 5 μg/mL Insulin (Bovine Pancreas) (Sigma, #I0516, St. Louis, MO), 1.68 mM Calcium Chloride (Sigma, #C-34006, St. Louis, MO) and 1% Penicillin/Streptomycin/L-Glutamine (ThermoFisher #10378016, Waltham, MA) at 37° C., 5% CO2, and 95% humidity. Cells are expanded until reaching 70-95% confluency at which point they are subcultured or harvested for assay use. A serial dilution of test compound is dispensed into a 96-well black clear bottom plate in triplicate. Three thousand cells are added per well in 200 μL complete growth medium in the 96-well plate. Plates are incubated for 67-72 hours at 37° C., 5% CO2, and 95% humidity. At the end of the incubation, 40 μL of a 440 μM solution of resazurin (Sigma, #199303, St. Louis, MO) in PBS is added to each well of the plate and plates are incubated for an additional 6-7 hours at 37° C., 5% CO2, and 95% humidity. Plates are read on a Synergy2 or equivalent reader (Biotek, Winooski VT) using an excitation of 540 nm and an emission of 600 nm. Data is analyzed using Prism software (GraphPad, San Diego, CA) to calculate IC50 values.

The text below walks through data of US12319655B2, “RAF kinase inhibitors and methods of use thereof” (Deciphera Pharmaceuticals, LLC, priority 2021, dated 2025).

Each structure is given as a SMILES string.

A-Raf kinase (SEQ. ID No: 1), sequence (P10398 other isoform, or with tags, fused parts or gaps Y301D (already in the parent)/Y302D (already in the parent)): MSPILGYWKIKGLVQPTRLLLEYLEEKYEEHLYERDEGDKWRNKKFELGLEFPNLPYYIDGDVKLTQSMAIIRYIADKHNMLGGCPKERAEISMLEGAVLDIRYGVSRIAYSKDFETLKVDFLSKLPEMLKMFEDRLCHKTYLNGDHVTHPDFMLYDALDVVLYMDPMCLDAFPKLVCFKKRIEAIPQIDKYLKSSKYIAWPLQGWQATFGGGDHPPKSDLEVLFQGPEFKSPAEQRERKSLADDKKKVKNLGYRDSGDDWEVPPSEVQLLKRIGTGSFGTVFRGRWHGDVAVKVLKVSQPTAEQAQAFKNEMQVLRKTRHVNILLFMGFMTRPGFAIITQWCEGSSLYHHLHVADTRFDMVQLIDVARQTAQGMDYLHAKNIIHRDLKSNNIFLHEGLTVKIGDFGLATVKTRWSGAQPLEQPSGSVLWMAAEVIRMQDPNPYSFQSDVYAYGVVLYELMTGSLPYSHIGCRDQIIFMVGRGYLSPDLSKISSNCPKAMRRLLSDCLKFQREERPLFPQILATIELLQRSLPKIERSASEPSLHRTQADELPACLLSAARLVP
B-Raf kinase (SEQ. ID NO: 2), sequence (P15056 416-766): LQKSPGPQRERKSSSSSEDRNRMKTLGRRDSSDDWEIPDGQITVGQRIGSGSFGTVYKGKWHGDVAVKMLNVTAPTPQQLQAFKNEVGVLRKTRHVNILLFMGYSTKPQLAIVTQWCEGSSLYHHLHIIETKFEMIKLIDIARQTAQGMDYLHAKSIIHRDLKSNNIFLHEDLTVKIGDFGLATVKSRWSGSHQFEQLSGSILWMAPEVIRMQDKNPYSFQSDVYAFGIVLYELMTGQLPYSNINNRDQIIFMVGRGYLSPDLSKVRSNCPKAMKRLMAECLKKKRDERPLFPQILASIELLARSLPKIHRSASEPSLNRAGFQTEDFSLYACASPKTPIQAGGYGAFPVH

In the case of `CNC(=O)c1cc(-c2cc(-c3cc(NC(=O)c4ccnc(C(C)(C)C#N)c4)cnc3C)ccn2)ccn1` [Example 158], the IC50 (commonly the midpoint of a concentration-inhibition curve) was 100 to 500 nM in test [1], 1000 to 10000 nM in test [2], no more than 100 nM in test [3] and 100 to 500 nM in test [4].
Turning to `CC(=O)Nc1cc(-c2cncc(-c3cc(NC(=O)c4ccnc(C(C)(C)C#N)c4)ccc3C)n2)ccn1` [Example 140], the half-inhibitory concentration (IC50) in test [1] was no more than 100 nM; in test [2], 500 to 1000 nM; in test [3], no more than 100 nM; in test [4] it was no more than 100 nM.
Turning to `Cc1cc(F)c(NC(=O)c2ccnc(C(C)(C)C#N)c2)cc1-c1ccnc(-c2ccnc(NC(=O)C3CC3)c2)n1` [Example 179], the half-maximal inhibitory concentration (IC50) in test [1] is no more than 100 nM; in test [2] it was 500 to 1000 nM; in test [3] it was no more than 100 nM; in test [4], no more than 100 nM.
For the compound `CC(=O)Nc1cc(-c2cncc(-c3cc(NC(=O)c4cc(C(F)(F)F)ccn4)ccc3C)n2)ccn1` [Example 124], the IC50 is no more than 100 nM in test [1], 1000 to 10000 nM in test [2], no more than 100 nM in test [3] and no more than 100 nM in test [4].
With `Cc1ccc(NC(=O)c2ccnc(C(C)(C)C#N)c2)cc1-c1cncc(-c2ccnc(NC(=O)CC#N)c2)n1` [Example 154], the IC50 in test [1] was no more than 100 nM; in test [2] it was 100 to 500 nM; in test [3], no more than 100 nM; in test [4], no more than 100 nM.
With `CC(=O)Nc1cc(-c2nccc(-c3cc(NC(=O)c4cnnc(C5CC5)c4)ccc3C)n2)ccn1` [Example 168], the IC50 in test [1] is no more than 100 nM; in test [2], 1000 to 10000 nM; in test [3] it was 500 to 1000 nM; in test [4] it was 500 to 1000 nM.
As for `COCCNc1cc(-c2cccc(-c3cc(NC(=O)c4ccnc(C(F)(F)F)c4)ccc3C)c2)ncn1` [Example 156], the IC50 in test [1] was in the range of 100 to 500 nM; in test [2], 1000 to 10000 nM; in test [3], 1000 to 10000 nM; in test [4], 500 to 1000 nM.
Regarding `Cc1ccc(NC(=O)c2ccnc(C3(C#N)CC3)c2)cc1-c1ccnc(-c2ccnc(NC(=O)C3CC3)c2)n1` [Example 180], the IC50 was no more than 100 nM in test [1], 100 to 500 nM in test [2], no more than 100 nM in test [3] and no more than 100 nM in test [4].
As to `CNc1cc(-c2cccc(-c3cc(NC(=O)c4ccnc(C(C)(C)C#N)c4)ccc3C)c2)ncn1` [Example 160], the IC50 in test [1] was no more than 100 nM; in test [2] it was 1000 to 10000 nM; in test [3], 100 to 500 nM; in test [4] it was no more than 100 nM.
In the case of `Cc1ccc(NC(=O)c2ccnc(C(C)(C)C#N)c2)cc1-c1nccc(-c2ccnc(NC(=O)C3CC3)c2)n1` [Example 169], the IC50 in test [1] is no more than 100 nM; in test [2], 100 to 500 nM; in test [3] it was no more than 100 nM; in test [4], no more than 100 nM.
For `CC(=O)Nc1cc(-c2cccc(-c3cc(NC(=O)c4ccnc(C(F)(F)F)c4)c(F)cc3C)c2)ncn1` [Example 114], the concentration for half-maximal inhibition (IC50) was no more than 100 nM in test [1], 1000 to 10000 nM in test [2], no more than 100 nM in test [3] and no more than 100 nM in test [4].
`CC(=O)Nc1cc(-c2cncc(-c3cc(NC(=O)c4ccnc(C5CC5)c4)ccc3C)n2)ccn1` [Example 145]: the IC50 is no more than 100 nM in test [1], 500 to 1000 nM in test [2], no more than 100 nM in test [3] and no more than 100 nM in test [4].
Take `Cc1ccc(NC(=O)c2cccc(C(C)(C)C#N)c2)cc1-c1cc(OCCO)nc(-c2ccnc3c2CC(=O)N3)c1` [Example 108]: the half-inhibitory concentration (IC50) in test [1] is no more than 100 nM; in test [2], 1000 to 10000 nM; in test [3], no more than 100 nM; in test [4], no more than 100 nM.
Take `Cc1ccc(NC(=O)c2cccc(C(C)(C)C#N)c2)cc1-c1cccc(-c2cc(NC(=O)C3CC3)ncn2)c1` [Example 174]: the half-inhibitory concentration (IC50) in test [1] was no more than 100 nM; in test [2], 1000 to 10000 nM; in test [3], no more than 100 nM; in test [4], no more than 100 nM.
`Cc1ncc(NC(=O)c2ccnc(C(C)(C)C#N)c2)cc1-c1cccc(-c2ncnc3[nH]ncc23)c1` [Example 129]: the 50% inhibitory concentration (IC50) in test [1] was no more than 100 nM; in test [2], 1000 to 10000 nM; in test [3], 500 to 1000 nM; in test [4] it was 100 to 500 nM.
`Cc1ccc(NC(=O)c2ccnc(C(C)(C)C#N)c2)cc1-c1cncc(-c2ccnc(NC(=O)C3CC3)c2)n1` [Example 112]: the IC50 in test [1] was no more than 100 nM; in test [2], 500 to 1000 nM; in test [3] it was no more than 100 nM; in test [4], no more than 100 nM.
Turning to `Cc1ccc(NC(=O)c2ccnc(C(C)(C)C#N)c2)cc1-c1cccc(-c2ccnc3[nH]ncc23)c1` [Example 134], the IC50 in test [1] is no more than 100 nM; in test [2], 1000 to 10000 nM; in test [3], 100 to 500 nM; in test [4] it was no more than 100 nM.
As for `Cc1cc(F)c(NC(=O)c2ccnc(C(C)(C)C#N)c2)cc1-c1ccnc(-c2ccnc(NC=O)c2)c1` [Example 104], the IC50 in test [1] is no more than 100 nM; in test [2], 1000 to 10000 nM; in test [3], no more than 100 nM; in test [4], no more than 100 nM.
Take `Cc1ncc(NC(=O)c2ccnc(C(C)(C)C#N)c2)cc1-c1cccc(-c2cc(NC(=O)C3CC3)ncn2)c1` [Example 181]: the half-maximal inhibitory concentration (IC50) was no more than 100 nM in test [1], 1000 to 10000 nM in test [2], no more than 100 nM in test [3] and no more than 100 nM in test [4].
With `CNC(=O)c1cc(-c2cc(-c3cc(NC(=O)c4ccnc(C(C)(C)C#N)c4)c(F)cc3C)ccn2)ccn1` [Example 176], the concentration for half-maximal inhibition (IC50) in test [1] is 100 to 500 nM; in test [2], 1000 to 10000 nM; in test [3], no more than 100 nM; in test [4], no more than 100 nM.
Turning to `CNC(=O)c1cc(-c2cc(-c3cc(NC(=O)c4ccnc(C(C)(C)C#N)c4)ccc3C)cc(C3CC3)n2)ccn1` [Example 163], the IC50 was 100 to 500 nM in test [1], 1000 to 10000 nM in test [2], no more than 100 nM in test [3] and no more than 100 nM in test [4].
With `Cc1ccc(NC(=O)c2ccnc(C3CC3)c2)cc1-c1cncc(-c2ccnc(NC(=O)C3CC3)c2)n1` [Example 184], the concentration for half-maximal inhibition (IC50) in test [1] is no more than 100 nM; in test [2], 100 to 500 nM; in test [3], no more than 100 nM; in test [4], no more than 100 nM.
Regarding `CNC(=O)c1cc(-c2cc(-c3cc(NC(=O)c4ccnc(C5(C#N)CC5)c4)ccc3C)ncn2)ccn1` [Example 178], the IC50 in test [1] was no more than 100 nM; in test [2] it was 1000 to 10000 nM; in test [3] it was 100 to 500 nM; in test [4], no more than 100 nM.
Regarding `CC(=O)Nc1nccc(-c2cccc(-c3cc(NC(=O)c4ccnc(C(F)(F)F)c4)ccc3C)c2)c1C#N` [Example 132], the half-maximal inhibitory concentration (IC50) in test [1] is 100 to 500 nM; in test [2], 1000 to 10000 nM; in test [3], 500 to 1000 nM; in test [4], 100 to 500 nM.
For `CC(=O)Nc1cc(-c2nccc(-c3cc(NC(=O)c4ccnc(C(C)(C)C#N)c4)ccc3C)n2)ccn1` [Example 118], the IC50 in test [1] was no more than 100 nM; in test [2] it was 500 to 1000 nM; in test [3], no more than 100 nM; in test [4] it was no more than 100 nM.
For `Cc1ccc(NC(=O)c2ccnc(C(F)F)c2)cc1-c1cncc(-c2ccnc(NC(=O)C3CC3)c2)n1` [Example 117], the IC50 in test [1] is no more than 100 nM; in test [2], 1000 to 10000 nM; in test [3] it was 100 to 500 nM; in test [4], no more than 100 nM.
